Source: patent US20040106802A1, “Novel compounds and therapeutic uses thereof” (TORRENT PHARMACEUTICALS LTD., priority 2002, published 2004)
Where a name gives a salt, the structure may show the parent alone.

Tests used:
Porcine DPP-IV = molecular target: T1, Porcine DPP-IV (Sus scrofa, UniProt P22411); assay: Assay of DPP-IV enzyme inhibitory activity (spectrophotometric, Gly-Pro-pNA cleavage); assay type: biochemical; details: Porcine DPP-IV, Gly-Pro-pNA substrate, 30° C.; mean ± SD of three experiments except compound Nos. 133 & 139; read-out: IC50 (μM) Mean ± SD, inhibitory activity on DPP-IV enzyme activity
T1 construct: purchased Sigma-Aldrich Germany
T1 sequence (P22411 whole entry): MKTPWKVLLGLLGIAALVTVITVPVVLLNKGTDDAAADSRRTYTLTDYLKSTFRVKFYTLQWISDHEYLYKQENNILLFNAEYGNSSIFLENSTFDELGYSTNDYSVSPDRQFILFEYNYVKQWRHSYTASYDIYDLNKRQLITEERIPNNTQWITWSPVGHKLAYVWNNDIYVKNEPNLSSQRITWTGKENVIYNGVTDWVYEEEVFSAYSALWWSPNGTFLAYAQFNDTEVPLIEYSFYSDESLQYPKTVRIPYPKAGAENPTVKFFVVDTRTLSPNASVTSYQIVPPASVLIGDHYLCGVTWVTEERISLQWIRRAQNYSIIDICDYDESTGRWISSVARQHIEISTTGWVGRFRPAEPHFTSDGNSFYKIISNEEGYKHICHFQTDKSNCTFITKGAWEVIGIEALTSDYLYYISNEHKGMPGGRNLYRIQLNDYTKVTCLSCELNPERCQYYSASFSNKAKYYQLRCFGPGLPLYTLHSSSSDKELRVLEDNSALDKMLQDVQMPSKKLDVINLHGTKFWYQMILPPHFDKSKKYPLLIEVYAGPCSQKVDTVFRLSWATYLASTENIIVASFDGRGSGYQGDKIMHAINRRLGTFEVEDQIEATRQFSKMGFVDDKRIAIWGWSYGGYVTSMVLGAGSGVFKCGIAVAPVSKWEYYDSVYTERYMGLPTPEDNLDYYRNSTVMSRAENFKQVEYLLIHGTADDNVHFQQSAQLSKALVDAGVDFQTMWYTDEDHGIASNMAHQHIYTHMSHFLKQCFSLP

[1] = In-vitro free radical scavenging activity using DPPH free radical; details: 30° C., 30 minutes, 515 nm
Source text: Free Radical Scavenging Activity:
To determine the in-vitro free radical scavenging activity of compounds of general formula-I on 2,2,-diphenyl-1-picrylhydrazyl (DPPH)radical (Ref: W. Brand-Williams, M. E. Cuvelier, C. Berset “Use of a free radical method to evaluate antioxidant activity”, Lebensm.- Wiss.u.Technol.,1995,28,Nr.1:25-30).
To evaluate the free radical scavenging activity of compounds they are allowed to react with stable radical DPPH*. In its radical form, DPPH* absorbed at the characteristic wave length of 515 nm, but upon reduction by an antioxidant or radical scavenger (AH), the absorption disappears.
10^−4M solution of DPPH* was prepared in methanol.
Various concentrations (10 mM, 1 mM, 0.5 mM, 0.25 mM and 0.125 mM) of drug solutions were prepared in methanol.
900 μl of DPPH radical solution was added to an eppendorf tube. To it was added 100 μl of methanol.
900 μl of DPPH radical solution was added to an eppendorf tube. To it was added 100 μl of various concentrations of drug solutions in methanol.
The absorbance of control and test samples was recorded after incubation at 30° C. for 30 minutes, at 515 nm taking methanol as blank.
The percent antioxidant activity was calculated according to the formula:
% Antioxidant activity=100−[O.D of test sample/O.D of control*100]

| Structure (SMILES) | IC50 (Porcine DPP-IV) [µM] | % Activity (antioxidant, DPPH) ([1]; Concentration 100 μM) [%] | % Activity (antioxidant, DPPH) ([1]; Concentration 12.5 μM) [%] | % Activity (antioxidant, DPPH) ([1]; Concentration 25 μM) [%] | % Activity (antioxidant, DPPH) ([1]; Concentration 50 μM) [%] | other results |
| --- | --- | --- | --- | --- | --- | --- |
| N#CC1CSCN1C(=O)CN(N)C1CCCC1.O=C(O)C(F)(F)F (centres unmarked) [Compound No. 19, 3-[1-Oxo-2-((1-Cyclopentyl)-hydrazino)]ethyl-4-cyano thiazolidine trifluoroacetate] | 1.46 ± 0.16 | 94.55 |  |  |  |  |
| N#CC1CSCN1C(=O)CN(N)C1CCCCC1.O=C(O)C(F)(F)F (centres unmarked) [Compound No. 21, 3-[1-Oxo-2-((1-Cyclohexyl)-hydrazino)]ethyl-4-cyano thiazolidine trifluoroacetate] | 2.01 ± 0.16 | 95.71 |  |  |  |  |
| CC1CCC(N(N)CC(=O)N2CSCC2C#N)CC1.O=C(O)C(F)(F)F (centres unmarked) [Compound No. 25, 3-[1-Oxo-2-((1-(4-methyl)cyclohexyl)hydrazino)]ethyl-4-cyano thiazolidine trifluoroacetate] | 0.67 ± 0.03 |  |  |  |  | % Activity (antioxidant, DPPH) ([1]; Concentration 100 μM, 100 µM): 95.66% |
| CC1CCC(N(N)CC(=O)N2CSCC2C#N)CC1.O=C(O)C(F)(F)F (centres unmarked) [Compound No. 29, 3-[1-Oxo-2-((1-(4-methyl)cyclohexyl)-hydrazino)]ethyl-4-cyano thiazolidine trifluoroacetate] | 0.8 ± 0.15 |  |  |  |  | % Activity (antioxidant, DPPH) ([1]; Concentration 100 μM, 100 µM): 93.70% |
| N#CC1CSCN1C(=O)CN(N)C1CCN(C(=O)N2CCOCC2)CC1.O=C(O)C(F)(F)F (centres unmarked) [Compound No. 85, 3-[1-oxo-2-[1-(1(morpholinocarbonyl)-piperidin-4-yl)]hydrazino]ethyl-4-cyano-thiazolidine trifluoroacetate] | 0.79 ± 0.072 | 67.23 | 15.25 | 30.67 | 49.97 |  |
| CS(=O)(=O)N1CCC(N(N)CC(=O)N2CSCC2C#N)CC1.O=C(O)C(F)(F)F (centres unmarked) [Compound No. 86, 3-[1-oxo-2-[1-(1-(methylsulphonyl)-piperidin-4-yl)]hydrazino]ethyl-4-cyanothiazolidine trifluoroacetate] | 1.46 ± 0.22 | 88.14 | 22.72 | 45.27 | 70.18 |  |
| CC(C)NN(CC(=O)N1CSCC1C#N)C1CCN(S(C)(=O)=O)CC1.O=C(O)C(F)(F)F (centres unmarked) [Compound No. 87, 3-[1-oxo-2-[1-(1 (methylsulphonyl)-piperidin-4-yl)-2-isopropyl]hydrazino]ethyl-4-cyanothiazolidine trifluoroacetate] | 18.3 ± 3.2 | 55.94 | 12.87 | 30.88 | 44.03 |  |
| CCNN(CC(=O)N1CSCC1C#N)C1CCN(S(C)(=O)=O)CC1.O=C(O)C(F)(F)F (centres unmarked) [Compound No. 88, 3-[1-oxo-2-[1-(1-(methylsulphonyl)-piperidin-4-yl)-2-ethyl]hydrazino]ethyl-4-cyanothiazolidine trifluoroacetate] | 3.75 ± 0.101 | 69.34 | 14.49 | 44.12 | 56.11 |  |
| CCNN(CC(=O)N1CSCC1C#N)C1CCN(C(=O)N2CCOCC2)CC1.O=C(O)C(F)(F)F (centres unmarked) [Compound No. 89, 3-[1-oxo-2-[1-(1-(morpholinocarbonyl)-piperidin-4-yl)-2-ethyl]hydrazino]ethyl-4-cyanothiazolidine trifluoroacetate] | 0.985 ± 0.086 | 55.07 | 10.37 | 20.74 | 36.94 |  |
| CCN(C)C(=O)N1CCC(N(N)CC(=O)N2CSCC2C#N)CC1.O=C(O)C(F)(F)F (centres unmarked) [Compound No. 90, 3-[1-oxo-2-[1-(1-(N-ethylmethylaminocarbonyl)-piperidin-4-yl)]hydrazino]ethyl-4-cyanothiazolidine trifluoroacetate] | 1.23 ± 0.3 | 82.75 | 21.81 | 42.93 | 62.91 |  |
| COc1ccc(S(=O)(=O)N2CCC(N(N)CC(=O)N3CSCC3C#N)CC2)cc1.O=C(O)C(F)(F)F (centres unmarked) [Compound No. 91, 3-[1-oxo-2-[1-(1-(4-methoxyphenylsulphonyl)-piperidin-4-yl)]hydrazino]ethyl-4-cyanothiazolidine trifluoroacetate] | 6.7 ± 0.4 | 85.69 | 17.16 | 38.11 | 58.87 |  |
| COc1ccc(S(=O)(=O)NC2CCC(N(N)CC(=O)N3CSCC3C#N)CC2)cc1.O=C(O)C(F)(F)F (centres unmarked) [Compound No. 92, 3-[1-oxo-2-[1-(1-(4-methoxyphenylsulphonyl)aminocyclohexan-4-yl)]hydrazino]ethyl-4-cyanothiazolidine trifluoroacetate] | 1.33 ± 0.124 | 78.77 | 10.07 | 30.36 | 58.48 |  |
| N#CC1CSCN1C(=O)CN(N)C1CCC(NCc2ccc(F)cc2)CC1 (centres unmarked) [Compound No. 93, 3-[1-oxo-2-[1-(1-(4-fluorobenzyl)aminocyclohexan-4-yl)]hydrazino]ethyl-4-cyanothiazolidine bis-trifluoroacetate] | 5.56 ± 0.18 | 64.24 | 15.18 | 28.08 | 44.13 |  |
| N#CC1CSCN1C(=O)CN(N)C1CCN(Cc2ccc(F)cc2)CC1 (centres unmarked) [Compound No. 94, 3-[1-oxo-2-[1-(1-(4-fluorobenzyl)-piperidin-4-yl)]hydrazino]ethyl-4-cyanothiazolidine bis-trifluoroacetate] | 2.23 ± 0.08 | 55.85 | 9.34 | 24.05 | 39.04 |  |
| CC(C)(C)C(=O)NC1CCC(N(N)CC(=O)N2CSCC2C#N)CC1.O=C(O)C(F)(F)F (centres unmarked) [Compound No. 96, 3-[1-oxo-2-[1-(1-(trimethylacetamido)cyclohexan-4-yl)]hydrazino]ethyl-4-cyanothiazolidine trifluoroacetate] | 4 ± 0.144 |  |  |  |  | % Activity (antioxidant, DPPH) ([1]; Concentration 12.5 μM, 12.5 µM): 19.11%; % Activity (antioxidant, DPPH) ([1]; Concentration 25 μM, 25 µM): 34.43%; % Activity (antioxidant, DPPH) ([1]; Concentration 50 μM, 50 µM): 48.83%; % Activity (antioxidant, DPPH) ([1]; Concentration 100 μM, 100 µM): 63.26% |
| N#CC1CSCN1C(=O)CN(N)C1CCC(NC(=O)c2ccc(F)cc2)CC1.O=C(O)C(F)(F)F (centres unmarked) [Compound No. 100] |  | 77.75 | 31.14 | 41.49 | 59.54 |  |
| N#CC1CSCN1C(=O)CN(N)C1CCN(CC(=O)Nc2ccc3c(c2)OCCO3)CC1 (centres unmarked) [Compound No. 104, 3-[1-oxo-2-[1-(1-(2-oxo-2(2,3dihydrobenzo(1,4)dioxan-6-yl)aminoethyl)piperidin-4-yl)]hydrazino]ethyl-4-cyano-thiazolidine bis-trifluoroacetate] |  | 50.14 | 19.40 | 36.23 | 42.20 |  |
| N#CC1CSCN1C(=O)CN(N)C1CCN(CC(=O)Nc2ccc(Cl)cc2)CC1 (centres unmarked) [Compound No. 105, 3-[1-oxo-2-[1-(1-(2-oxo-2(4-chlorophenyl)aminoethyl)piperidin-4-yl)]hydrazino]ethyl-4-cyanothiazolidine bis-trifluoroacetate] |  | 49.63 | 24.03 | 35.27 | 49.25 |  |
| N#CC1CSCN1C(=O)CN(N)C1CCN(CC(=O)Nc2ccc(Cl)cn2)CC1 (centres unmarked) [Compound No. 115, 3-[-1-oxo-2-[1-(1-(−2-oxo-2-(5-chloropyridin-2-yl)aminoethyl)piperidine-4-yl)]hydrazino]ethyl-4-cyanothiazolidine trihydrochloride] |  |  |  |  |  | % Activity (antioxidant, DPPH) ([1]; Concentration 12.5 μM, trihydrochloride, 12.5 µM): 19.46%; % Activity (antioxidant, DPPH) ([1]; Concentration 25 μM, trihydrochloride, 25 µM): 26.94%; % Activity (antioxidant, DPPH) ([1]; Concentration 50 μM, trihydrochloride, 50 µM): 46.24%; % Activity (antioxidant, DPPH) ([1]; Concentration 100 μM, trihydrochloride, 100 µM): 75.84% |
| N#CC1CSCN1C(=O)CN(N)C1CCN(CC(=O)Nc2cccnc2Cl)CC1 (centres unmarked) [compound 121] |  | 57.13 |  |  |  |  |
